In publication PMC6479946 (Molecules, 2019):

Assays:
[1] = oral administration of 40.0 mg/kg HAR; cited from earlier work
in vivo = details: rat plasma, n = 8, mean ± SD; for AUC(0-t) / AUC(0-inf) / CL/F / Cmax / k el / MRT / Tmax: male, Sprague-Dawley, rat, in vivo, po; for AUC(0-t): AUC(0-t) of HAR; for AUC(0-inf): AUC(0-∞) of HAR; for CL/F: CL/F of HAR; for Cmax: Cmax of HAR; for k el: Ke of HAR; for MRT: MRT of HAR; for Tmax: Tmax of HAR
Procedure: The analytes were separated on an ACQUITY UPLC BEH C18 column (2.1 mm × 50 mm, 1.7 μm, Waters, Milford, USA). […] The flow rate was 0.3 mL/min. The column and sample-tray temperature were kept at 40 °C and 4 °C, respectively. The injection volume was 5.0 μL using a partial loop with needle over fill mode.
The compound dependent parameters used for analysis were summarized in Supplementary materials Table S1.
A rapid and convenient precipitation method was used to prepare the plasma samples. A 100 μL aliquot of plasma sample was spiked with 100 μL of IS solution and 300 μL of methanol in a 1.5 mL centrifuge tube; subsequently, the mixtures were vortex-mixed for 30.0 s and then centrifuged at 1.5 × 10^4× g for 10 min at 4 °C. A 100 μL aliquot of supernatant was combined with 25.0 μL of 0.1% formic acid water in a clean centrifuge tube and then vortex-mixed for 30 s. A 5.0 μL aliquot of mixture was injected into the UPLC-MS/MS system for analysis.
Fifty-six pathogen-free male adult rats were randomly divided into seven groups with eight rats in each group for pharmacokinetic study. […] One group was intragastrically administered with MEM hydrochloride 5.0 mg/kg dissolved in ultrapure water, namely, MEM group. […] The blood samples were immediately centrifuged at 4.0 × 10^3× g at […] for 10 min, and 100 μL of the supernatant plasma was transferred into another new 1.5 mL centrifuge tube and stored at −20 °C until UPLC-MS/MS analysis.
All standard curves and quantitative data were processed by Agilent Mass Hunter Quantitative Analysis Workstation Software. […] All the pharmacokinetic parameters were processed using the non-compartmental pharmacokinetics data analysis software program PK solutions 2.0^TM (Summit Research Services, USA). […] The AUC(0-t) was obtained by the linear/logarithmic trapezoidal rule, and the area under the plasma concentration versus time curve from zero to infinity (AUC(0-∞)) was calculated by means of the trapezoidal rule with extrapolation to infinity with a terminal elimination rate constant. The Pearson correlation coefficient analysis was processed by IBM SPSS Statistics Version 21. A statistical analysis was performed using analysis of variance with α = 0.05 as the minimal level of significance.

[2] = 20 mg/kg, oral HAR 20.0 mg/kg + MEM 5.0 mg/kg (HAR-L + MEM)
[3] = 20 mg/kg, oral HAR 20.0 mg/kg alone (HAR-L)
[4] = 40 mg/kg, oral HAR 40.0 mg/kg + MEM 5.0 mg/kg (HAR-M + MEM)
[5] = 40 mg/kg, oral HAR 40.0 mg/kg alone (HAR-M)
[6] = 80 mg/kg, oral HAR 80.0 mg/kg + MEM 5.0 mg/kg (HAR-H + MEM)
[7] = 80 mg/kg, oral HAR 80.0 mg/kg alone (HAR-H)
[8] = oral HAR 20.0 mg/kg + MEM 5.0 mg/kg (HAR-L + MEM)
[9] = oral HAR 20.0 mg/kg alone (HAR-L)
[10] = oral HAR 40.0 mg/kg + MEM 5.0 mg/kg (HAR-M + MEM)
[11] = oral HAR 40.0 mg/kg alone (HAR-M)
[12] = oral HAR 80.0 mg/kg + MEM 5.0 mg/kg (HAR-H + MEM)
[13] = oral HAR 80.0 mg/kg alone (HAR-H)

COc1ccc2c(c1)[nH]c1c(C)nccc12 [HAR, 7-methoxy-1-methyl-9H-pyrido [3,4-β] indole]
maximum peak concentration (Cmax) of HAR [1]: 67.1 ± 34.3 ng/mL | AUC(0-t) (in vivo; [2]): 141 ± 56.7 ng·h/mL | AUC(0-t) (in vivo; [3]): 74.9 ± 36.3 ng·h/mL | AUC(0-inf) (in vivo; [2]): 158 ± 65.4 ng·h/mL | AUC(0-inf) (in vivo; [3]): 83.1 ± 38.9 ng·h/mL | CL/F (in vivo; [2]): 158 L/h/kg | CL/F (in vivo; [3]): 323 L/h/kg | Cmax (in vivo; [2]): 64.5 ± 14.7 ng/mL | Cmax (in vivo; [3]): 31.4 ± 16.3 ng/mL | k el (in vivo; [2]): 8.67e-05 s⁻¹ | k el (in vivo; [3]): 0.000119 s⁻¹ | MRT (in vivo; [2]): 4.02 ± 1.96 h | MRT (in vivo; [3]): 3.36 ± 1.38 h | Tmax (in vivo; [2]): 0.5 ± 0.267 h | Tmax (in vivo; [3]): 0.5 ± 0.267 h | AUC(0-t) (in vivo; [4]): 139 ± 40.6 ng·h/mL | AUC(0-t) (in vivo; [5]): 100 ± 44.8 ng·h/mL | AUC(0-inf) (in vivo; [4]): 153 ± 43.1 ng·h/mL | AUC(0-inf) (in vivo; [5]): 109 ± 47.9 ng·h/mL | CL/F (in vivo; [4]): 278 L/h/kg | CL/F (in vivo; [5]): 431 L/h/kg | Cmax (in vivo; [4]): 86.6 ± 31 ng/mL | Cmax (in vivo; [5]): 77 ± 53.8 ng/mL | k el (in vivo; [4]): 4.83e-05 s⁻¹ | k el (in vivo; [5]): 0.000132 s⁻¹ | MRT (in vivo; [4]): 3.28 ± 1.02 h | MRT (in vivo; [5]): 2.83 ± 1.41 h | Tmax (in vivo; [4]): 0.24 ± 0.129 h | Tmax (in vivo; [5]): 0.365 ± 0.271 h | AUC(0-t) (in vivo; [6]): 1060 ± 540 ng·h/mL | AUC(0-t) (in vivo; [7]): 502 ± 180 ng·h/mL | AUC(0-inf) (in vivo; [6]): 1110 ± 508 ng·h/mL | AUC(0-inf) (in vivo; [7]): 587 ± 275 ng·h/mL | CL/F (in vivo; [6]): 91.2 L/h/kg | CL/F (in vivo; [7]): 163 L/h/kg | Cmax (in vivo; [6]): 755 ± 298 ng/mL | Cmax (in vivo; [7]): 368 ± 253 ng/mL | k el (in vivo; [6]): 0.000127 s⁻¹ | k el (in vivo; [7]): 0.000116 s⁻¹ | MRT (in vivo; [6]): 2.88 ± 1.93 h | MRT (in vivo; [7]): 3.17 ± 1.48 h | Tmax (in vivo; [6]): 0.448 ± 0.63 h | Tmax (in vivo; [7]): 0.344 ± 0.186 h | Ka of HAR (in vivo; [8]): 1.91 ± 2.46 h⁻¹ | T1/2a of HAR (in vivo; [8]): 1.57 ± 2.28 h | T1/2e of HAR (in vivo; [8]): 2.89 ± 2.26 h | T1/2d of HAR (in vivo; [8]): 1.22 ± 1.24 h | Vd of HAR (in vivo; [8]): 59.0 ± 35.1 (L/kg) × 10 | Ka of HAR (in vivo; [9]): 1.66 ± 2.27 h⁻¹ | T1/2a of HAR (in vivo; [9]): 1.29 ± 1.25 h | T1/2e of HAR (in vivo; [9]): 2.05 ± 1.11 h | T1/2d of HAR (in vivo; [9]): 2.14 ± 2.57 h | Vd of HAR (in vivo; [9]): 80.3 ± 39.2 (L/kg) × 10 | Ka of HAR (in vivo; [10]): 1.52 ± 1.08 h⁻¹ | T1/2a of HAR (in vivo; [10]): 1.18 ± 1.22 h | T1/2e of HAR (in vivo; [10]): 4.33 ± 1.31 h | T1/2d of HAR (in vivo; [10]): 2.33 ± 2.71 h | Vd of HAR (in vivo; [10]): 172 ± 61.6 (L/kg) × 10 | Ka of HAR (in vivo; [11]): 2.69 ± 2.60 h⁻¹ | T1/2a of HAR (in vivo; [11]): 0.529 ± 0.478 h | T1/2e of HAR (in vivo; [11]): 2.28 ± 1.86 h | T1/2d of HAR (in vivo; [11]): 0.960 ± 0.734 h | Vd of HAR (in vivo; [11]): 136 ± 105 (L/kg) × 10 | Ka of HAR (in vivo; [12]): 2.93 ± 2.06 h⁻¹ | T1/2a of HAR (in vivo; [12]): 0.357 ± 0.228 h | T1/2e of HAR (in vivo; [12]): 3.21 ± 3.17 h | T1/2d of HAR (in vivo; [12]): 1.40 ± 1.74 h | Vd of HAR (in vivo; [12]): 60.3 ± 89.6 (L/kg) × 10 | Ka of HAR (in vivo; [13]): 2.80 ± 2.74 h⁻¹ | T1/2a of HAR (in vivo; [13]): 0.605 ± 0.546 h | T1/2e of HAR (in vivo; [13]): 2.35 ± 1.44 h | T1/2d of HAR (in vivo; [13]): 1.36 ± 1.37 h | Vd of HAR (in vivo; [13]): 51.4 ± 33.1 (L/kg) × 10
